Measured values: PMC7395068, “The evolution of strategies to minimise the risk of human drug-induced liver injury (DILI) in drug discovery and development” (Archives of Toxicology, 2020)
Read-outs that look alike come from different tables or passages of the source.

Assays:
[1] = Plasma free fraction (fu) and unbound Cmax (Cmax,u); type: in vitro ADME, human; details: unbound plasma Cmax
Method: The prediction of DILI severity was evaluated further using the 3D combined HCI assays using plasma-free fraction. The majority of fu values were obtained from literature, when unavailable in-house prediction was utilised. Unbound plasma Cmax concentrations (Cmax,u) were derived by multiplying total plasma Cmax with the corresponding free fraction (fu) for each compound.

HepG2 = system: HepG2; set-up: method as in Albrecht 2019; details: In vitro Assay; ref Albrecht 2019; cited from earlier work
HepG2 cells [2] = details: Structural based (HCI), HepG2; ref O'Brien et al. 2006; cited from earlier work
HepG2 cells [3] = details: cited from earlier work
HepG2 cells [4] = details: cited from earlier work; remark: listed apart in the source
[5] = system: THLE or HepG2 cells, isolated mitochondria, BSEP; details: cited from earlier work
PHH [6] = details: cited from earlier work
hLiMTs [7] = details: cited from earlier work
[8] = system: HepG2 C3A spheroid, BSEP, Glu/Gal in HepG2 cells, bioactivation; details: cited from earlier work
[9] = read-out: Human plasma Cmax; total plasma Cmax.tot, median of 9 literature references; cited from earlier work
[10] = plasma free fraction; cited from earlier work
[11] = cited from earlier work
PHH [12] = details: In vitro Assay; ref Albrecht 2019; cited from earlier work
[13] = system: isolated mouse liver mitochondria; details: In vitro Assay; ref Porceddu 2012; cited from earlier work
hLiMTs [14] = test: Combined HCI (HCS) and cellular ATP 3D assay in hLiMTs; details: for AC50 / minimal effective concentration: Homo sapiens
HepaRG spheroids = test: Combined HCI (HCS) and cellular ATP 3D assay in HepaRG spheroids
[15] = In vitro Assay, ref Persson 2013
[16] = Modeled in vitro assays (cytotoxicity, mitochondrial dysfunction, BSEP), ref Aleo et al. 2019
[17] = In vitro Assay, ref Proctor 2017
[18] = Microtissue model structural based (HCI), combined HCS and ATP, MEC < 25 × Cmax.tot cut-off

## CC(=O)Oc1ccccc1C(=O)O [acetylsalicylic acid]
[1]
  Human plasma Cmax,u: 538.224 µM
HepG2
  Cytotoxicity HepG2 48 hrs: +VE
HepG2 cells [2]
  DILI in vitro assay prediction, O'Brien (2006): +VE (lowest HCI endpoint IC50 (or in the absence of dose–response < 100 µM) < 30 × total human plasma exposure levels (Cmax.tot))
HepG2 cells [3]; [15]
  Cluser analysis: -VE
  Structural based (HCI): -VE
HepG2 cells [3]; Structural based (HCI), HepG2, ref Persson et al. 2013
  DILI in vitro assay prediction, Persson (2013): -VE
HepG2 cells [4]; In vitro Assay, ref Tolosa 2012
  Structural based (HCI): +VE
HepG2 cells [4]; Structural based (HCI), HepG2, ref Tolosa et al. 2012
  DILI in vitro assay prediction, Tolosa (2012): +VE
[5]; In vitro Assay, ref Aleo 2019
  Partition Hybrid HRM Score: -VE
  Ro2 Hybrid HRM Score: -VE
[5]; [16]
  Partition Hybrid HRM Score ≥4, Aleo (2019): -VE
  Partition Hybrid HRM Score ≥8, Aleo (2019): -VE
  Rule of Two hybrid HRM Score ≥3, Aleo (2019): -VE
  Rule of Two hybrid HRM Score ≥8, Aleo (2019): -VE
PHH [6]; 2D PHH, ATP, IC50 < 100 × Cmax.tot, ref Proctor et al. 2017
  PHH/100xCmax, Proctor (2017): -VE
PHH [6]; 2D PHH, ATP, IC50 threshold 100 µM, ref Proctor et al. 2017
  PHH/100uM, Proctor (2017): -VE
PHH [6]; [17]
  PHH ATP <100uM: -VE
hLiMTs [7]; [17]
  hLiMTs ATP <100uM: -VE
hLiMTs [7]; hLiMTs, ATP, IC50 < 100 × Cmax.tot, ref Proctor et al. 2017
  hLiMTs/100xCmax, Proctor (2017): -VE
hLiMTs [7]; hLiMTs, ATP, IC50 threshold 100 µM, ref Proctor et al. 2017
  hLiMTs/100uM, Proctor (2017): -VE
[8]; Bayesian modeling, ref Williams et al. 2019
  Bayesian Machine Learning DILI prediction, Williams (2019): -VE
[8]; In vitro Assay, ref Williams 2019
  Bayesian Machine Learning: -VE
[9]
  Cmax: 1380 µM
[10]
  fu: 0.390
[11]; Chen et al. 2016 or literature alignment, ref Chen et al. 2016
  Assigned DILI category: 3
[11]; […]
  In vivo DILI: -VE
[11]; ref Albrecht 2019
  In vivo DILI: +VE
[11]; ref Aleo 2019
  In vivo DILI: +VE
[11]; ref Persson 2013
  In vivo DILI: +VE
[11]; ref Porceddu 2012
  In vivo DILI: +VE
[11]; ref Proctor 2017
  In vivo DILI: +VE
[11]; ref Tolosa 2012
  In vivo DILI: +VE
[11]; ref Williams 2019
  In vivo DILI: +VE
PHH [12]
  Cytotoxicity PHH 48 hrs: +VE
[13]
  in vitro data EC2<=1x Cmax: +VE
  in vitro data EC20<=2uM: -VE
hLiMTs [14]; read-out: ATP endpoint AC50
  AC50: 3.25 mM
hLiMTs [14]; read-out: ATP endpoint MEC
  minimal effective concentration: 2270 µM
hLiMTs [14]; read-out: HCS endpoint AC50
  AC50: 4.69 mM
hLiMTs [14]; read-out: HCS endpoint MEC
  minimal effective concentration: 1930 µM
hLiMTs [14]; [18]
  DILI prediction hLiMTs (HCS-MEC): +VE (MEC < 25 × Cmax.tot cut-off)
hLiMTs [14]; hLiMTs, ATP endpoint, cut-off <25x Avg Cmax
  hLiMTs <25x Avg Cmax ATP: +ve
hLiMTs [14]; hLiMTs, ATP endpoint, cut-off <100x Avg Cmaxu
  hLiMTs <100x Avg Cmaxu ATP: +ve (<100x Avg Cmaxu)
hLiMTs [14]; hLiMTs, HCS endpoints, cut-off <25x Avg Cmax
  hLiMTs <25x Avg Cmax HCS: +ve
hLiMTs [14]; hLiMTs, HCS endpoints, cut-off <100x Avg Cmaxu
  hLiMTs <100x Avg Cmaxu HCS: +ve (<100x Avg Cmaxu)
hLiMTs [14]; hLiMTs, all endpoints (ATP and HCS), cut-off <25x Avg Cmax
  hLiMTs <25x Avg Cmax All: +ve
hLiMTs [14]; hLiMTs, all endpoints, Cmax max used
  hLiMTs Cmax max All: +ve
hLiMTs [14]; hLiMTs, all endpoints, Cmax min used
  hLiMTs Cmax min All: +ve
hLiMTs [14]; hLiMTs, all endpoints, cut-off <10 uM
  hLiMTs <10 uM All: -ve
hLiMTs [14]; hLiMTs, all endpoints, cut-off <100x Avg Cmaxu
  hLiMTs <100x Avg Cmaxu All: +ve (<100x Avg Cmaxu)
HepaRG spheroids; HepaRG, ATP endpoint, cut-off <25x Avg Cmax
  HepaRG <25x Avg Cmax ATP: +ve
HepaRG spheroids; HepaRG, ATP endpoint, cut-off <100x Avg Cmaxu
  HepaRG <100x Avg Cmaxu ATP: +ve (<100x Avg Cmaxu)
HepaRG spheroids; HepaRG, HCS endpoints, cut-off <25x Avg Cmax
  HepaRG <25x Avg Cmax HCS: +ve
HepaRG spheroids; HepaRG, HCS endpoints, cut-off <100x Avg Cmaxu
  HepaRG <100x Avg Cmaxu HCS: +ve (<100x Avg Cmaxu)
HepaRG spheroids; HepaRG, all endpoints (ATP and HCS), cut-off <25x Avg Cmax
  HepaRG <25x Avg Cmax All: +ve
HepaRG spheroids; HepaRG, all endpoints, Cmax max used
  HepaRG Cmax max All: +ve
HepaRG spheroids; HepaRG, all endpoints, Cmax min used
  HepaRG Cmax min All: +ve
HepaRG spheroids; HepaRG, all endpoints, cut-off <10 uM
  HepaRG <10 uM All: -ve
HepaRG spheroids; HepaRG, all endpoints, cut-off <100x Avg Cmaxu
  HepaRG <100x Avg Cmaxu All: +ve (<100x Avg Cmaxu)
HepaRG spheroids; Homo sapiens, HepaRG, read-out: ATP endpoint AC50
  AC50: 1.63 mM
HepaRG spheroids; Homo sapiens, HepaRG, read-out: ATP endpoint MEC
  minimal effective concentration: 659 µM
HepaRG spheroids; Homo sapiens, HepaRG, read-out: HCS endpoint MEC
  minimal effective concentration: 1340 µM
HepaRG spheroids; [18]
  DILI prediction HepaRG spheroids (HCS-MEC): +VE (MEC < 25 × Cmax.tot cut-off)
